Results reported in patent US20240190890A1, “MK2 INHIBITORS AND USES THEREOF” (Bristol-Myers Squibb Company, priority 2022, published 2024).

What follows are compounds tested against p38a activated, mitogen-activated protein kinase-activated protein kinase 2 (MAPKAP-K2 or MK2) enzyme (Homo sapiens (Human), UniProt P49137) (assay: MK2 Omnia continuous-read kinase assay for compound potency). Settings: [MK-2]=0.4 nM, [ATP]=10 μM, [ST3-Sox]=10 μM; room temperature.
Type: biochemical
In short: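 p38a-activated MK2 (0.4 nM) with 10 μM ATP (apparent Km) and 10 μM S/T3-Sox peptide in Tris pH 7.5 buffer with MgCl2, EGTA and DTT. Fluorescence (ex360/em485) read continuously for 120 min at room temperature. IC50 from initial linear slopes; apparent kinact/KI from kobs of exponential progress-curve fits.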

p38a activated, mitogen-activated protein kinase-activated protein kinase 2 (MAPKAP-K2 or MK2) enzyme, sequence (P49137 whole entry): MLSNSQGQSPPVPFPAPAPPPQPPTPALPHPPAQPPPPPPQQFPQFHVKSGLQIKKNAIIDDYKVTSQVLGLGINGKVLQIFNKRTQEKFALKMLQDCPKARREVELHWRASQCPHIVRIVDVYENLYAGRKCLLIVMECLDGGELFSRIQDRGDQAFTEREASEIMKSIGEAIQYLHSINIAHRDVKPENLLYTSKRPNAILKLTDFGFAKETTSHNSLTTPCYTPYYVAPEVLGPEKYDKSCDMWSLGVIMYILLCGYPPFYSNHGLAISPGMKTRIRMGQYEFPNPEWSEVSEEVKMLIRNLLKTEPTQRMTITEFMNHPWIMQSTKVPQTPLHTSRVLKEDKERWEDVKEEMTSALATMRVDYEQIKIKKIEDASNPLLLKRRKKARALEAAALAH

Compound | IC50 [nM]
C[C@@H]1CNc2c(sc3ccc4nc(-c5cc(Cl)nc(CO)c5)ccc4c23)C(=O)N1 [Example I-97, (R)-3-(2-chloro-6-(hydroxymethyl)pyridin-4-yl)-10-methyl-9,10,11,12-tetrahydro-8H-[1,4]diazepino[5′,6′:4,5]thieno[3,2-f]quinolin-8-one] | 60
C#Cc1cc(-c2ccc3c(ccc4sc5c(c43)NC[C@@H](C)NC5=O)n2)cc(N2CCC(OC)CC2)n1 [Example I-159, (R)-3-(2-ethynyl-6-(4-methoxypiperidin-1-yl)pyridin-4-yl)-10-methyl-9,10,11,12-tetrahydro-8H-[1,4]diazepino[5′,6′:4,5]thieno[3,2-f]quinolin-8-one] | 189
C=Cc1cc(C(F)(F)F)nn1-c1ccc2c(ccc3sc4c(c32)NC[C@@H](C)NC4=O)n1 [Example I-241, (R)-10-methyl-3-(3-(trifluoromethyl)-5-vinyl-1H-pyrazol-1-yl)-9,10,11,12-tetrahydro-8H-[1,4]diazepino[5′,6′:4,5]thieno[3,2-f]quinolin-8-one] | 1000
C=Cc1cnn(C)c1-c1ccc2c(ccc3sc4c(c32)NC[C@@H](C)NC4=O)n1 [Example I-146, (R)-10-methyl-3-(1-methyl-4-vinyl-1H-pyrazol-5-yl)-9,10,11,12-tetrahydro-8H-[1,4]diazepino[5′,6′:4,5]thieno[3,2-f]quinolin-8-one] | 499
C=Cc1cc(-c2ccc3c(ccc4sc5c(c43)NC[C@@H](C)NC5=O)n2)c(OCCN2CCOCC2)nn1 [Example I-133, (R)-10-methyl-3-(3-(2-morpholinoethoxy)-6-vinylpyridazin-4-yl)-9,10,11,12-tetrahydro-8H-[1,4]diazepino[5′,6′:4,5]thieno[3,2-f]quinolin-8-one] | 255
C=Cc1cc(-c2ccc3c(ccc4sc5c(c43)NC[C@@H](C)NC5=O)n2)c(CN2CC3(COC3)C2)cn1 [Example I-263, (R)-3-(5-((2-oxa-6-azaspiro[3.3]heptan-6-yl)methyl)-2-vinylpyridin-4-yl)-10-methyl-9,10,11,12-tetrahydro-8H-[1,4]diazepino[5′,6′:4,5]thieno[3,2-f]quinolin-8-one] | 47
C=Cc1cnn(-c2ccc3c(ccc4sc5c(c43)NC[C@@H](C)NC5=O)n2)c1 [Example I-148, (R)-10-methyl-3-(4-vinyl-1H-pyrazol-1-yl)-9,10,11,12-tetrahydro-8H-[1,4]diazepino[5′,6′:4,5]thieno[3,2-f]quinolin-8-one] | 101
C#Cc1cc(-c2ccc3c(ccc4sc5c(c43)NC[C@@H](C)NC5=O)n2)ccn1 [Example I-57, (R)-3-(2-ethynylpyridin-4-yl)-10-methyl-9,10,11,12-tetrahydro-8H-[1,4]diazepino[5′,6′:4,5]thieno[3,2-f]quinolin-8-one] | 117
(R)-10-methyl-3-(2-(4-methylpiperazin-1-yl)-6-vinylpyridin-4-yl)-9,10,11,12-tetrahydro-8H-[1,4]diazepino[5′,6′:4,5]thieno[3,2-f]quinolin- [Example I-96] | 10
C=Cc1nccc(-c2ccc3c(ccc4sc5c(c43)NC[C@@H](C)NC5=O)n2)c1F [Example I-217, (R)-3-(3-fluoro-2-vinylpyridin-4-yl)-10-methyl-9,10,11,12-tetrahydro-8H-[1,4]diazepino[5′,6′:4,5]thieno[3,2-f]quinolin-8-one] | 78
C#Cc1cc(-c2ccc3c(ccc4sc5c(c43)NC[C@@H](C)NC5=O)n2)c(Cl)cn1 [Example I-144, (R)-3-(5-chloro-2-ethynylpyridin-4-yl)-10-methyl-9,10,11,12-tetrahydro-8H-[1,4]diazepino[5′,6′:4,5]thieno[3,2-f]quinolin-8-one] | 678
C[C@@H]1CNc2c(sc3ccc4nc(-c5nc(Cl)ncc5COC5CCOCC5)ccc4c23)C(=O)N1 [Example I-24, (R)-3-(2-chloro-5-(((tetrahydro-2H-pyran-4-yl)oxy)methyl)pyrimidin-4-yl)-10-methyl-9,10,11,12-tetrahydro-8H-[1,4]diazepino[5′,6′:4,5]thieno[3,2-f]quinolin-8-one] | 98
C=Cc1sncc1-c1ccc2c(ccc3sc4c(c32)NC[C@@H](C)NC4=O)n1 [Example I-229, (R)-10-methyl-3-(5-vinylisothiazol-4-yl)-9,10,11,12-tetrahydro-8H-[1,4]diazepino[5′,6′:4,5]thieno[3,2-f]quinolin-8-one] | 123
C[C@@H]1CNc2c(sc3ccc4nc(-n5cnc(Cl)n5)ccc4c23)C(=O)N1 [Example I-210, (R)-3-(3-chloro-1H-1,2,4-triazol-1-yl)-10-methyl-9,10,11,12-tetrahydro-8H-[1,4]diazepino[5′,6′:4,5]thieno[3,2-f]quinolin-8-one] | 91
C#Cc1cc(-c2ccc3c(ccc4sc5c(c43)NC[C@@H](C)NC5=O)n2)c(NC)nn1 [Example I-104, (R)-3-(6-ethynyl-3-(methylamino)pyridazin-4-yl)-10-methyl-9,10,11,12-tetrahydro-8H-[1,4]diazepino[5′,6′:4,5]thieno[3,2-f]quinolin-8-one] | 194

The remaining lines, values ahead:

IC50 [nM] | Compound
7 | C=Cc1ncc(COCC)c(-c2ccc3c(ccc4sc5c(c43)NC[C@@H](C)NC5=O)n2)n1 [Example I-5, (R)-3-(5-(ethoxymethyl)-2-vinylpyrimidin-4-yl)-10-methyl-9,10,11,12-tetrahydro-8H-[1,4]diazepino[5′,6′:4,5]thieno[3,2-f]quinolin-8-one]
3 | C[C@@H]1CNc2c(sc3ccc4nc(-c5cc(Cl)ncc5C#N)ccc4c23)C(=O)N1 [Example I-160, (R)-6-chloro-4-(10-methyl-8-oxo-9,10,11,12-tetrahydro-8H-[1,4]diazepino[5′,6′:4,5]thieno[3,2-f]quinolin-3-yl)nicotinonitrile]
24 | C=Cc1ncc(COC2COC2)c(-c2ccc3c(ccc4sc5c(c43)NC[C@@H](C)NC5=O)n2)n1 [Example I-21, (R)-10-methyl-3-(5-((oxetan-3-yloxy)methyl)-2-vinylpyrimidin-4-yl)-9,10,11,12-tetrahydro-8H-[1,4]diazepino[5′,6′:4,5]thieno[3,2-f]quinolin-8-one]
23 | C=Cc1cc(-c2ccc3c(ccc4sc5c(c43)NC[C@@H](C)NC5=O)n2)cc(N2CCOCC2)n1 [Example I-156, (R)-10-methyl-3-(2-morpholino-6-vinylpyridin-4-yl)-9,10,11,12-tetrahydro-8H-[1,4]diazepino[5′,6′:4,5]thieno[3,2-f]quinolin-8-one]
5 | C#Cc1cc(-c2ccc3c(ccc4sc5c(c43)NC[C@@H](C)NC5=O)n2)ncn1 [Example I-38, (R)-3-(6-ethynylpyrimidin-4-yl)-10-methyl-9,10,11,12-tetrahydro-8H-[1,4]diazepino[5′,6′:4,5]thieno[3,2-f]quinolin-8-one]
16 | CCOCc1nc(Cl)cc(-c2ccc3c(ccc4sc5c(c43)NC[C@@H](C)NC5=O)n2)n1 [Example I-30, (R)-3-(6-chloro-2-(ethoxymethyl)pyrimidin-4-yl)-10-methyl-9,10,11,12-tetrahydro-8H-[1,4]diazepino[5′,6′:4,5]thieno[3,2-f]quinolin-8-one]
42 | C#Cc1cc(-c2ccc3c(ccc4sc5c(c43)NC[C@@H](C)NC5=O)n2)cc(N2CCN(C)CC2)n1 [Example I-95, (R)-3-(2-ethynyl-6-(4-methylpiperazin-1-yl)pyridin-4-yl)-10-methyl-9,10,11,12-tetrahydro-8H-[1,4]diazepino[5′,6′:4,5]thieno[3,2-f]quinolin-8-one]
15 | [2H]C([2H])([2H])C(O)c1cnc(C=C)cc1-c1ccc2c(ccc3sc4c(c32)NC[C@@H](C)NC4=O)n1 (stereo partly drawn) [Example I-259, (10R)-3-(5-(1-hydroxyethyl-2,2,2-d3)-2-vinylpyridin-4-yl)-10-methyl-9,10,11,12-tetrahydro-8H-[1,4]diazepino[5′,6′:4,5]thieno[3,2-f]quinolin-8-one]
1 | C=Cc1cc(-c2ccc3c(ccc4sc5c(c43)NC[C@@H](C)NC5=O)n2)nc(CO)n1 [Example I-76, (R)-3-(2-(hydroxymethyl)-6-vinylpyrimidin-4-yl)-10-methyl-9,10,11,12-tetrahydro-8H-[1,4]diazepino[5′,6′:4,5]thieno[3,2-f]quinolin-8-one]
28 | C=Cc1cc(-c2ccc3c(ccc4sc5c(c43)NC[C@@H](C)NC5=O)n2)c(OCCN2CCCC2)nn1 [Example I-118, (R)-10-methyl-3-(3-(2-(pyrrolidin-1-yl)ethoxy)-6-vinylpyridazin-4-yl)-9,10,11,12-tetrahydro-8H-[1,4]diazepino[5′,6′:4,5]thieno[3,2-f]quinolin-8-one]
24 | C=C(F)c1ncc(F)c(-c2ccc3c(ccc4sc5c(c43)NC[C@@H](C)NC5=O)n2)n1 [Example I-31, (R)-3-(5-fluoro-2-(1-fluorovinyl)pyrimidin-4-yl)-10-methyl-9,10,11,12-tetrahydro-8H-[1,4]diazepino[5′,6′:4,5]thieno[3,2-f]quinolin-8-one]
23 | C#Cc1nc(CO)cc(-c2ccc3c(ccc4sc5c(c43)NC[C@@H](C)NC5=O)n2)n1 [Example I-86, (R)-3-(2-ethynyl-6-(hydroxymethyl)pyrimidin-4-yl)-10-methyl-9,10,11,12-tetrahydro-8H-[1,4]diazepino[5′,6′:4,5]thieno[3,2-f]quinolin-8-one]
35 | C=Cc1cc(-c2ccc3c(ccc4sc5c(c43)NC[C@@H](C)NC5=O)n2)c(COCC)cn1 [Example I-262, (R)-3-(5-(ethoxymethyl)-2-vinylpyridin-4-yl)-10-methyl-9,10,11,12-tetrahydro-8H-[1,4]diazepino[5′,6′:4,5]thieno[3,2-f]quinolin-8-one]
39 | C[C@@H]1CNc2c(sc3ccc4nc(-c5cc(CO)nc(Cl)n5)ccc4c23)C(=O)N1 [Example I-84, (R)-3-(2-chloro-6-(hydroxymethyl)pyrimidin-4-yl)-10-methyl-9,10,11,12-tetrahydro-8H-[1,4]diazepino[5′,6′:4,5]thieno[3,2-f]quinolin-8-one]
